Assay results as given in US11065202B2, “Multi-component nanochains” (CASE WESTERN RESERVE UNIVERSITY, priority 2011, dated 2021).

Assays:
[1] = tested on: 13762 MAT B III tumor model; experiment: Tumor growth and survival study; type: in vivo, rats; settings: single treatment 0.5 mg/kg DOX, without RF
Text: The rat tumor model was established by a subcutaneous injection of 1×10^6 13762 MAT B III cells into the right flank of female Fisher rats. Mouse tumors were generated orthotopically in female BALB/c mice by injection of 0.5×10^6 4 T1 cells into the inguinalmammary fat pad. Once the appropriate tumor size was established (diameter ˜0.5 cm), the animals were used in the in vivo studies. Each cell line required different lag times to produce a tumor lesion of about 0.5 cm in size (5 and 8 days for the MAT B III and 4T1 model, respectively). Based on our prior experience, we chose this tumor size as the starting point of the animal studies, since the primary tumor mass is sufficiently large to present angiogenic, necrotic and invasive areas, and therefore may be more informative and relevant to human disease.
Once the appropriate tumor sizes were established (diameter ˜0.5 cm), the rat tumor model was IV injected with DOX-NC at a dose of 0.5 mg/kg DOX. After 24 hours from injection, animals were exposed to the RF field operated as described previously. Following the same dose and schedule, control groups included animals treated with DOX-NC (but no RF), only RF, liposomal DOX, liposomal DOX with RF, free DOX, and saline. […] The tumor growth was monitored every day using caliper measurements. […] Time of death was determined to be the following day.

MAT B III tumors = experiment: Histological evaluation of apoptosis (TUNEL), rat model; type: in vivo, rats; settings: 5 mg/kg, IV
Procedure: The rat MAT B III and the mouse 4T1 models were used in the histological studies. Animals treated with DOX-NC were exposed to the RF field 24 hours post-injection. After 24 hours from the application of the RF field, the animals were anesthetized with an IP injection of ketamine/xylazine and transcardially perfused with heparinized PBS followed by 4% paraformaldehyde in PBS. Controls included animals treated with DOX-NC (no RF), 35-nm liposomal DOX (with RF), 100-nm liposomal DOX (with RF), free DOX, RF alone and saline. The tumors were explanted and post-fixed overnight in 4% paraformaldehyde in PBS. The fixed tumors were soaked in 30% sucrose (w/v) in PBS at 4° C. for cryosectioning. Serial sections of 12 μm thickness were collected using a cryostat (Leica CM 300).
To visualize the tumor microvasculature, the tissue slices were immunohistochemically stained for the specific endothelial antigen CD31 (BD Biosciences, Pharmingen). The tissues were also stained with the nuclear stain DAPI. […] Direct fluorescence (red) imaging of tumor sections were performed for imaging DOX. Apoptosis was detected using a TUNEL assay (Promega). […] The total number of cells was counted based on the nuclear stain (DAPI) in multiple histological sections per tumor (minimum 20), whereas apoptotic cells were quantified based on TUNEL-stained nuclei.

COc1cccc2c1C(=O)c1c(O)c3c(c(O)c1C2=O)C[C@@](O)(C(=O)CO)C[C@@H]3O[C@H]1C[C@H](N)[C@H](O)[C@H](C)O1 [free DOX, doxorubicin]
tumor growth [1]: failed to produce any therapeutic benefits
apoptotic cells in tumor (visual inspection) (MAT B III tumors): substantial number of apoptotic cells
